Here are results for four molecules from patent publication US20240066037A1 (priority 2020, published 2024).

SMILES strings stand for the structures. Like-named read-outs stand apart in the source and are kept apart here.

In data set [1] the test system is SARS-CoV-2 (βCoV/KOR/KCDC03/2020). The experiment in a line: microbe, parasite or virus in culture. Format: cell-based. Conditions: for IC50: Severe acute respiratory syndrome coronavirus 2, Calu-3, 24 h.
The test system of data set [2] is SARS-CoV-2 (USA_WA1/2020). The experiment in a line: microbe, parasite or virus in culture. Format: cell-based. Particulars: for IC50: Severe acute respiratory syndrome coronavirus 2, Vero C1008, 72 h, read-out: Antiviral IC50.
Another data set concerns MERS (EMC/2012). Kind of data set: microbe, parasite or virus in culture. It is filed as cell-based. Particulars: for IC50: Middle East respiratory syndrome-related coronavirus.
The test system of a further data set is SARS-CoV-2. Format: cell-based.
A short description of data set [3]: in vitro. Conditions: African green monkey.
In another data set the test system is SARS-CoV-1 (Toronto 2). Kind of data set: microbe, parasite or virus in culture. It is filed as cell-based. Conditions: for IC50: Severe acute respiratory syndrome coronavirus, Vero C1008, 72 h, read-out: Antiviral IC50.
The next data set concerns NiV. The experiment in a line: organism not typed. It is filed as cell-based. Particulars: HeLa.
Data set [4] has as its system EBOV (Makona). Kind of data set: microbe, parasite or virus in culture. It is filed as cell-based. Conditions: Zaire ebolavirus, HeLa.
Another data set has as its system EBOV (Kikwit). The experiment in a line: microbe, parasite or virus in culture. Format: cell-based. Conditions: Zaire ebolavirus, Vero.
The test system of the next data set is MARV. Kind of data set: organism not typed. Format: cell-based. Particulars: HeLa.
The target of data set [5] is Cat V (L2). Conditions: cited from earlier work.
A further data set addresses Caspase 3-4. Particulars: cited from earlier work.
The subject of data set [6] is EBOV (Makona). Kind of data set: microbe, parasite or virus in culture. Format: cell-based. Conditions: Zaire ebolavirus, Vero.
The next data set deals with HTNV. Kind of data set: organism not typed. It is filed as cell-based. Conditions: Vero.
Data set [7] addresses Cat K (Macaca fascicularis, UniProt P61276). Particulars: cited from earlier work.
Data set [8] is described as follows: in vitro. Particulars: Syrian hamster.
Another data set addresses Cat G (Homo sapiens, UniProt P08311). Conditions: cited from earlier work.
Data set [9] deals with Cat K (Mus musculus, UniProt P55097). Conditions: cited from earlier work.
Another data set deals with LASV. The experiment in a line: organism not typed. It is filed as cell-based. Conditions: HeLa.
For the next data set, the system named is EBOV. Conditions: rhesus monkey, in vivo.
The subject of another data set is WNV. Kind of data set: microbe, parasite or virus in culture. Conditions: West Nile virus, HeLa. It is filed as cell-based.
Data set [10] has as its target Cat L (Mus musculus, UniProt P06797). Conditions: cited from earlier work.
The target of the next data set is Cat D (Homo sapiens, UniProt P07339). Conditions: cited from earlier work.
The target of the next data set is Cat S (Rattus norvegicus, UniProt Q02765). Conditions: cited from earlier work.
The target of data set [11] is Cat L. Conditions: cited from earlier work.
Data set [12] has as its target Cat L (Rattus norvegicus, UniProt P07154). Particulars: cited from earlier work.
In data set [13] the target is Cat V (L2) (Homo sapiens, UniProt O60911). Conditions: cited from earlier work.
Another data set has as its system MERS-CoV. The experiment in a line: microbe, parasite or virus in culture. It is filed as cell-based. Conditions: Middle East respiratory syndrome-related coronavirus, MRC5.
Another data set deals with Calpain. Particulars: cited from earlier work.
Where [14] appears, read: Vero C1008, read-out: Antiviral IC50 (std-incubation).
The mark [15] stands for this setting: Vero C1008, read-out: pre-incubation IC50.

Cat V (L2) (Homo sapiens, UniProt O60911), sequence (O60911 114-334): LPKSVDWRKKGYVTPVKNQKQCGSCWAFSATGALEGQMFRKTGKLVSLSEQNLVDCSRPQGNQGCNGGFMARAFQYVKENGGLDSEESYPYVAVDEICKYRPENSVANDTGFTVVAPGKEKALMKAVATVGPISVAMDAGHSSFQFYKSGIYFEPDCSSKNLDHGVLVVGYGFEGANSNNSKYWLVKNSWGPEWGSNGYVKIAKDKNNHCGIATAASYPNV
Cat L (Rattus norvegicus, UniProt P07154), sequence (P07154 114-334): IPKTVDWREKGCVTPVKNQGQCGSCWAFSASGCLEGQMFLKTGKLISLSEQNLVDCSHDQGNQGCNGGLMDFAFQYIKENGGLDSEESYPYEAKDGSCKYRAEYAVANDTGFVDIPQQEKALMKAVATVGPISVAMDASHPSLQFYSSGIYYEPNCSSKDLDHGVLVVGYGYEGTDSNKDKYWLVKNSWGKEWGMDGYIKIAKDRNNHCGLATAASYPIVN
Cat K (Mus musculus, UniProt P55097), sequence (P55097 115-329): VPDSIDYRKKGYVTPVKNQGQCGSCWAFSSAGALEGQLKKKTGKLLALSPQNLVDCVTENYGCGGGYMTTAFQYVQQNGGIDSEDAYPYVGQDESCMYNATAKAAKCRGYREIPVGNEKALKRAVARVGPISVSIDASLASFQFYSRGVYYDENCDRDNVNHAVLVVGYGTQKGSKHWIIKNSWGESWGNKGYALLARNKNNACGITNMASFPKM
Cat S, sequence (Q02765 113-330): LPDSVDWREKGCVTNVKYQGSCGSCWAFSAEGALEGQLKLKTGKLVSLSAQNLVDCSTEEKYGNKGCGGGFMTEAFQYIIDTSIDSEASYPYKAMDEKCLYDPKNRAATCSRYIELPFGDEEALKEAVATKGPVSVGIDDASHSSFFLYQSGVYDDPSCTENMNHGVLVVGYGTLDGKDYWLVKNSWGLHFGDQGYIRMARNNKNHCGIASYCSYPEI
Cat D, sequence (P07339 65-412): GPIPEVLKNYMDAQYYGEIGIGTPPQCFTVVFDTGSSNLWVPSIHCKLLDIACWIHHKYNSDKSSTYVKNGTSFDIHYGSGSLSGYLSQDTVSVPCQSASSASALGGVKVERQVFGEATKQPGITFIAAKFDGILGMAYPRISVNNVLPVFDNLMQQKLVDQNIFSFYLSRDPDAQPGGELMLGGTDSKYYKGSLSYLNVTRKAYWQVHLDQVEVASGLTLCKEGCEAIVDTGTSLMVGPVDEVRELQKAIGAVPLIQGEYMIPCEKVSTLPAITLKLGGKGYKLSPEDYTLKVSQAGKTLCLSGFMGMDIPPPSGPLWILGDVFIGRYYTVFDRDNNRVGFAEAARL
Cat L (Mus musculus, UniProt P06797), sequence (P06797 114-334): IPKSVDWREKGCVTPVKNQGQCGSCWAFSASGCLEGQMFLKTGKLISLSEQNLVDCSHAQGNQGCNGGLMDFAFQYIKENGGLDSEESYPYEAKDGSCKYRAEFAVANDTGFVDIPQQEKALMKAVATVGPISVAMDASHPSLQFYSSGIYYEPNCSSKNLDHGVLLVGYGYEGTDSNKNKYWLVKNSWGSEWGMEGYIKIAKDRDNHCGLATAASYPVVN
Cat K (Macaca fascicularis, UniProt P61276), sequence (P61276 115-329): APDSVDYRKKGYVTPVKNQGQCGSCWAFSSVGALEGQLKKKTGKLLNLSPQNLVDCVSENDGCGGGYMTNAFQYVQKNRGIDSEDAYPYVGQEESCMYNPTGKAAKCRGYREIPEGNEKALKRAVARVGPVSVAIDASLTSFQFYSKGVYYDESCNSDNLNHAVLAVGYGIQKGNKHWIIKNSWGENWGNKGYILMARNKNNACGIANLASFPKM
Cat G, sequence (P08311 21-244): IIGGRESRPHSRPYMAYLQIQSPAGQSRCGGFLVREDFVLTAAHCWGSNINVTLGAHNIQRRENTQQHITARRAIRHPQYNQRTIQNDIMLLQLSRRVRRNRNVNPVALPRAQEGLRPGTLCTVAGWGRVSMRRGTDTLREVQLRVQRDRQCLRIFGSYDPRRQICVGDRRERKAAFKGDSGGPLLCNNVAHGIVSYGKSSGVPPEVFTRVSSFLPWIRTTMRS

The term IC50 denotes the concentration at which inhibition is half-maximal. For the molecule `CN(C)C(=O)COC(=O)Cc1ccc(OC(=O)c2ccc(NC(=N)N)cc2)cc1` [camostat], the “SARS-CoV-2 activity in Calu-3 cells, expression of N protein” value in data set [1] is on record as “reduced the expression of N protein”. The IC50 in data set [1] (read-out: Exp. 1 IC50) is 160 nM; in data set [1] (read-out: Exp. 2 IC50) it was 290 nM; in data set [2], > 50000 nM; with MERS (EMC/2012) (setting [14]), > 50000 nM; in the data set with MERS (EMC/2012) (setting [15]), > 50000 nM; in the data set on SARS-CoV-1 (Toronto 2), > 50000 nM. Further, the “Selectivity Index CC50/IC50” value (in data set [2]; in the data set on MERS (EMC/2012); in the data set with SARS-CoV-1 (Toronto 2)) was >1 in each case. Besides, the “antiviral activity” value (in [2]; in the data set on MERS (EMC/2012); with SARS-CoV-1 (Toronto 2)) was “no antiviral activity” throughout. Further, the “SARS-CoV-2 antiviral activity, titer by plaque assay (FIG. 8A, words)” value with SARS-CoV-2 is listed as “dose-dependent SARS-CoV-2 antiviral activity”. Besides, the CC50 in “in vitro [3]” is > 50000 nM.
With `CCN(CC)CCCC(C)Nc1ccnc2cc(Cl)ccc12` (centres unmarked) [Chloroquine], the IC50 in data set [2] was found to be 3710 nM; in the data set on MERS (EMC/2012) (setting [14]) it was 21000 nM; in the data set with SARS-CoV-1 (Toronto 2) it was 2020 nM. The CC50 in “in vitro [3]” is > 30000 nM.
Turning to `CCC(CC)COC(=O)[C@H](C)N[P@](=O)(OC[C@H]1O[C@@](C#N)(c2ccc3c(N)ncnn23)[C@H](O)[C@@H]1O)Oc1ccccc1` [Remdesivir], the concentration for half-maximal inhibition (IC50) stood at 1940 nM in data set [1] (read-out: Exp. 1 IC50); 2150 nM in data set [1] (read-out: Exp. 2 IC50); 4150 nM in data set [2]; 12500 nM in the data set on MERS (EMC/2012) (setting [14]); 7420 nM in the data set with SARS-CoV-1 (Toronto 2). Besides, the “Selectivity Index CC50/IC50” value in data set [2] was >7.2; with MERS (EMC/2012) it was >2.4; with SARS-CoV-1 (Toronto 2) it was >4.0. The CC50 in “in vitro [3]” is > 30000 nM.
Broadly, the EC50 is the concentration giving half of the maximal effect. One may read the EC90 as the point of the concentration-response curve where the effect stands at 90%. `CC(C)C[C@H](NC(=O)c1cc2ccccc2o1)C(=O)N[C@H]1CC[C@@H](C)N(S(=O)(=O)c2ccccn2)CC1=O` [relacatib, N-((2S)-4-methyl-1-(((4S,7R)-7-methyl-3-oxo-1-(pyridin-2-ylsulfonyl)azepan-4-yl)amino)-1-oxopentan-2-yl)benzofuran-2-carboxamide]: the concentration giving a half-maximal response (EC50) was 15 nM in the data set with NiV; 360 nM in the data set with EBOV (Makona) [4]; 2890 nM in the data set on EBOV (Kikwit); 250 nM with MARV; > 100000 nM in the data set with HTNV; > 100000 nM in the data set on LASV. In addition, the values for the EC50 in the data set on WNV and in the data set with MERS-CoV were > 100000 nM and 40 nM, respectively. Moreover, the Ki at Cat V (L2) [5] is 0.7 nM; on Caspase 3-4, > 10000 nM; at Cat K [7] it was 0.04 nM; on Cat G it was > 30000 nM; on Cat K [9], 15 nM; on Cat L [10], 0.2 nM. The Ki on Cat D is > 10000 nM; at Cat S, 5.5 nM; at Cat L [11], 0.3 nM; at Cat L [12] it was 0.2 nM; on Cat V (L2) [13], 0.05 nM; at Cat V (L2) [13] (read-out: Ki, app), 0.053 nM. Besides, the Ki at Calpain was 310 nM. The same molecule came in with a concentration for an effect of 90% (EC90) in the data set with EBOV (Makona) [6] of 9710 nM. The “SARS-CoV-2 activity in Calu-3 cells, expression of N protein” value in data set [1] is on record as “no measurable SARS-CoV-2 activity”. Besides, the half-inhibitory concentration (IC50) is > 50000 nM in [1] (read-out: Exp. 1 IC50); > 50000 nM in data set [1] (read-out: Exp. 2 IC50); 20 nM in [2]; 600 nM in the data set with MERS (EMC/2012) (setting [14]); 680 nM in the data set on MERS (EMC/2012) (setting [15]); 230 nM in the data set with SARS-CoV-1 (Toronto 2). In addition, the CC50 in the data set “in vitro [8]” was > 20000 nM; in the data set “in vitro [3]”, > 50000 nM. Besides, the “SARS-CoV-2 antiviral activity, titer by plaque assay (FIG. 8A, words)” value with SARS-CoV-2 is on record as “essentially no activity”. Moreover, the “GI pathology in colon (FIG. 5C, words)” value with EBOV was “enhanced GI pathology noted in colon”. Besides, in the data set with EBOV (po), the “Kaplan-Meier survival, P treatment versus vehicle control (Log-rank Mantel-Cox test)” value came to 0.0565.
